Patent US20220273562A1, “HYDROPHOBICALLY ASSOCIATING POLYMER COUNTER ION PAIR COMPLEXES” (MALVERN COSMECEUTICS LIMITED, priority 2019, published 2022)
Counter-ions that a name gives are not always drawn.

Experiments:
[1] = Stability of the mixtures after 2-4 mths at 4° C.; type: physicochemical; design: key to Stability* After 2-4 mths + at 4° C.: S-stable; PS—partially stable; NS—not stable
[2] = Ability of polymer counter ion pair to solubilise lipid: visual clarity of polymer counter ion/PL mixtures as pH is adjusted; conditions: for ion pairing with SMA 1:1 leading to formation of SMA/PL macromolecular assemblies: hydrochloride salts as cationic counter ions
[3] = SMA 1:1 50 mg, DLPC 20 mg, 2 ml, amine HCl: isopentylamine 3 mg, isobutylamine 9 mg, tyramine 5-6 mg, diphenhydramine 2.5-4 mg, phenylalanine ethyl ester 10 mg, tolazoline 5 mg, naphazoline 8 mg total
[4] = SMA 1:1 50 mg, DLPC 20 mg, 2 ml, phenylalanine ethyl ester 'Cleared,', tolazoline 'Remains clear overnight,', naphazoline 'Virtually clear'
[5] = SMA 1:1 50 mg, DLPC 20 mg (2.5:1), 2 ml, amine HCl [% w/w]: isopentylamine 3 mg [0.15], isobutylamine 9 mg [0.45] (clears on standing 3 days), tyramine 5-6 mg [0.25-0.3], diphenhydramine 2.5-4 mg [0.13-0.2], phenylalanine ethyl ester 10 mg [0.5], tolazoline 5 mg [0.25], naphazoline 5 mg, start pH 7 or 8
[6] = SMA 1:1 50 mg, DLPC 20 mg, 2 ml, naphazoline HCl further 3 mg, 8 mg [0.4% w/w] total

In the case of `c1ccc(CC2=NCCN2)cc1` [2-Benzyl-2-imidazoline (tolazoline), 2-benzyl-2-imidazoline, reference compound], the “Stability* After 2-4 mths + at 4° C.” value [1, 3] is reported as “S”, the “Stability, appearance in words” value [1, 4] is reported as “clear” and the “pH for clear sample” value ([2]; Poly(methacrylic acid) sodium 4-6k 50 mg (preformed PMA + Bz), DLPC 10 mg (5:1), 2 ml, start pH 7-8, tolazoline HCl 22 mg [1.1% w/w], printed 'ppt & clear') is reported as 6, ppt &. The “pH for clear sample” value [2, 5] was 7-8, and the “collapse pK of the 1:1 SMA polymer when associating with PL” value ([2]; imidazoline counter ion in place of a primary amine) was ~7.
In the case of `Nc1ccc(C(=O)O)cc1` [4-amino benzoic acid (PABA), 4-amino benzoic acid], the “ion pairing with SMA 1:1 leading to formation of SMA/PL macromolecular assemblies” value (shortened to “ion pairing with SMA 1:1 leading”) [2] is reported as “failed”.
In the case of `CN(C)CCOC(c1ccccc1)c1ccccc1` [Diphenhydramine, diphenhydramine hydrochloride, reference compound], the “pH at which ppt forms” value ([2]; SMA 1:1 50 mg, DLPC 20 mg, 2 ml, diphenhydramine HCl 2.5-4 mg [0.13-0.2% w/w]) is reported as “ppt 6”.
With `CC(C)CN` [Isobutylamine] the “Stability, appearance in words” value ([1]; Poly(methacrylic acid) sodium 4-6k 50 mg, DLPC 10 mg, isobutyl amine HCl 10 mg [0.5% w/w]) was “Clear”, the “Stability, appearance in words” value ([1]; Poly(methacrylic acid) sodium 4-6k 50 mg, DLPC 10 mg, isobutyl amine HCl 24 mg then 36 mg total, printed 'Clear overnight few white ppt particles') was “Clear” and the “Stability* After 2-4 mths + at 4° C.” value [1, 3] was “S”. For the same compound, the “pH for clear sample” value ([2]; Poly(maleic acid) 50 mg, DLPC 2 mg (25:1), isobutyl amine HCl further 5 mg, 20 mg [1.0% w/w] total, printed 'No clearing.') was “No”, the “pH for clear sample” value ([2]; Poly(maleic acid) 50 mg, DLPC 2 mg, isobutyl amine HCl further 5 mg, 25 mg [1.25% w/w] total, at pH 8, printed '8, No clearing.') was 8, No and the “pH for clear sample” value ([2]; Poly(maleic acid) 50 mg, DLPC further 2, total 4 mg (12.5:1), isobutyl amine HCl 25 mg, complete clearing, fine white flecks) was 3, Complete. The “pH at which ppt forms” value ([2]; Poly(maleic acid) 50 mg, DLPC total 4 mg (12.5:1), isobutyl amine HCl 25 mg) was 4 ppt, the “pH for clear sample” value ([2]; Poly(maleic acid) ex PolyS 50 mg, 2 ml, start pH 8, isobutyl amine HCl 15 mg [0.75% w/w], no DLPC entered in this line) was 7 and the “pH at which ppt forms” value ([2]; Poly(methacrylic acid) sodium 4-6k 50 mg, DLPC 10 mg (5:1), 2 ml, start pH 6, isobutyl amine HCl 10 mg [0.5% w/w]) was 4, ppt. The “pH for clear sample” value ([2]; Poly(methacrylic acid) sodium 4-6k 50 mg, DLPC 10 mg, isobutyl amine HCl 24 mg [1.2% w/w] total) was “ppt, 5”, the “pH at which slight clouding occurs” value ([2]; Poly(methacrylic acid) sodium 4-6k 50 mg, DLPC 10 mg, isobutyl amine HCl 36 mg [1.8% w/w] total) was 5, slight and the “pH for clear sample” value [2, 5] was 8, clears.
For `CC(C)CCN` [Isopentylamine, Isopentyl amine], the “Stability* After 2-4 mths + at 4° C.” value [1, 3] was “NS” and the “pH for clear sample” value [2, 5] was 7, Clear.
With `N[C@@H](Cc1ccc(O)c(O)c1)C(=O)O` [L-dopa, reference compound] the “ion pairing with SMA 1:1 leading” value [2] was “failed”.
In the case of `NC[C@H](O)c1ccc(O)c(O)c1` [L-norepinephrine, reference compound], the “ion pairing with SMA 1:1 leading” value [2] is reported as “failed”.
With `c1ccc2c(CC3=NCCN3)cccc2c1` [Naphazoline, naphazoline hydrochloride, reference compound] the “Stability* After 2-4 mths + at 4° C.” value [1, 3] was “PS”, the “Stability, appearance in words” value [1, 4] was “clear” and the “pH for clear sample” value [2, 5] was 8, Clear. The “pH at which sample is cloudy” value [2, 6] was “Cloudy 7,”, the “pH for clear sample” value [2, 6] was “Clear 8-9” and the “ion pairing with SMA 1:1 leading” value [2] was “can also surprisingly be used as ion pairs”.
In the case of `Cl.NCCc1ccccc1` [PEA, 2-Phenylethylamine hydrochloride], the “Stability* After 2-4 mths + at 4° C.” value ([1]; SMA 1:1 40 mg, DLPC 20 mg, 1.6 ml, PEA HCl 4.4 mg [0.25% w/w]) is reported as “NS”, the “Stability* After 2-4 mths + at 4° C.” value ([1]; SMA 1:1 50 mg, DLPC 25 mg, 2 ml, PEA HCl 40 mg [2% w/w]) is reported as “PS” and the “collapse pH” value ([2]; 2% PEA added to a 2.5% solution of 1:1 SMA) is reported as 8-9. For the same compound, the “pH for clear sample” value ([2]; SMA 1:1 40 mg, DLPC 20 mg (2:1), final vol 1.6 ml, PEA HCl 4.4 mg [0.25% w/w]) was 7, Clear, the “pH for clear sample” value ([2]; SMA 1:1 40 mg, DLPC 20 mg, final vol 1.64 ml, further 2.9 mg PEA HCl, 7.3 mg [0.45% w/w] total) was 10, Clear and the “pH for clear sample” value ([2]; SMA 1:1 50 mg, DLPC 25 mg (2:1), final vol 2 ml, PEA HCl 40 mg [2% w/w]) was 8.5 clear. For the same compound, the “pH for clear sample” value ([2]; SMA 2:1 50 mg, DLPC 25 mg (polymer:lipid 2:1), final vol 2 ml, PEA HCl 40 mg [2% w/w]) was 9 clear, the “pH over which the polymer collapses to interact with phospholipid” value ([2]; ratio SMA(1:1):PEA 5:4) was 8.5 and the “pH over which the polymer collapses to interact with phospholipid” value ([2]; ratio SMA(1:1):PEA 9:1) was 7.0.
In the case of `CCOC(=O)[C@@H](N)Cc1ccccc1.Cl` [Phenylalanine ethyl ester, L-phenylalanine ethyl ester hydrochloride], the “Stability* After 2-4 mths + at 4° C.” value [1, 3] is reported as “PS”, the “Stability, appearance in words” value [1, 4] is reported as “Cleared,” and the “pH for clear sample” value [2, 5] is reported as 8, Clears.
In the case of `NCCc1ccc(O)cc1` [Tyramine, tyramine], the “Stability* After 2-4 mths + at 4° C.” value [1, 3] is reported as “S” and the “ion pairing with SMA 1:1 leading” value [2] is reported as “can also surprisingly be used as ion pairs”.
For `CN(C)CCCC1c2ccccc2CCc2ccccc21` [amitryptyline hydrochloride, reference compound], the “ion pairing with SMA 1:1 leading” value [2] was “only partially formed”.
In the case of `CCOC(=O)c1ccc(N)cc1` [benzocaine, reference compound], the “ion pairing with SMA 1:1 leading” value [2] is reported as “failed”.
For `NCCc1ccc(O)c(O)c1` [dopamine, reference compound], the “ion pairing with SMA 1:1 leading” value [2] was “failed”.
With `COc1cc(C(O)CN)ccc1O` (stereo not drawn) [normetanephrine] the “ion pairing with SMA 1:1 leading” value [2] was “failed”.
In the case of `NCC(O)c1ccc(O)cc1` (stereo not drawn) [octopamine], the “ion pairing with SMA 1:1 leading” value [2] is reported as “failed”.
